Measurements reported in patent publication US20050113283A1, “Methods of treating conditions associated with an EDG-4 receptor” (priority 2002, published 2005).
Entries after “also recorded” stand apart in the source; their conditions may differ.

Key:
Assay type in all cases: cell-based
human Edg-4 receptor [1] = target: T1, human Edg-4 receptor (Homo sapiens, UniProt Q9HBW0); assay: Calcium mobilization assay (FLIPR), HTC rat hepatoma cells transfected with human Edg-4; conditions: for inhibition of LPA-induced calcium mobilization, human Edg-4: clonal HTC cell line, FIG. 11; for EC50: agonist
T1 construct: IC50 Edg-4; other: agonist, calcium mobilization; potency relative to compound 101; calcium response (agonist)
Description: (§1) LPA receptors such as Edg-4, couple to calcium effector pathways, and result in increases in intracellular calcium following receptor activation (An et al., Molecular Pharmacology, 54:881-888, 1998, incorporated herein by reference). This biological response lends itself to a very efficient, high-throughput screen using a Fluorescence Imaging Plate Reader (FLIPR; Molecular Devices, Sunnyvale, Calif.). The FLIPR system is a real-time, cell-based assay system with continuous fluorescence detection using a cooled CCD camera. The FLIPR system was used to developing an Edg-4 receptor screen. Rat hepatoma cells stably expressing Edg-4 receptor were plated on 384-well plates and loaded with a calcium dye loading kit (Molecular Devices, Sunnyvale, Calif.) for 1 hour at room temperature. Cells were then placed on the FLIPR^354 (Molecular Devices, Sunnyvale, Calif.) and excited by an argon laser at 488 nm. The data for the entire 384-well plate was updated every second. An integrated robotic pipettor allowed for simultaneous compound addition into each individual well in the plate.

mouse Edg-4 receptor = target: T2, mouse Edg-4 receptor (Mus musculus, UniProt Q9JL06); assay: LPA induced calcium mobilization, HTC cells transfected with pooled mouse Edg-4 clones; conditions: pooled HTC population, FIG. 13
T2 construct: expressed in transfected cells; host or cells: HTC rat hepatoma cells, pooled population
Description: as §1

rat Edg-4 receptor = assay: LPA induced calcium mobilization, HTC cells transfected with pooled rat Edg-4 clones; conditions: pooled HTC population, FIG. 12
Description: as §1

Edg-8 = target: T3, Edg-8 (Homo sapiens, UniProt Q9H228); assay: Calcium mobilization assay (FLIPR), HTC cells expressing Edg 8; conditions: for EC50: agonist
T3 construct: expressed in transfected cells; host or cells: HTC rat hepatoma cells (from the earlier reading)

Edg-1 = target: T4, Edg-1 (Homo sapiens, UniProt P21453); assay: Calcium mobilization assay (FLIPR), HTC cells expressing Edg 1; conditions: for EC50: agonist
T4 construct: expressed in transfected cells; host or cells: HTC rat hepatoma cells (from the earlier reading)

human Edg-4 receptor [2] = assay: Calcium mobilization assay (FLIPR), HTC rat hepatoma cells transfected with human Edg-4; conditions: Edg-4 relative to other Edg receptors; for Fold Selectivity for Edg-4 (EC50): agonists
Description: as §1

Edg-2 = target: T5, Edg-2 (Homo sapiens, UniProt Q92633); assay: Calcium mobilization assay (FLIPR), HTC cells expressing Edg 2; conditions: for EC50: agonist
T5 construct: expressed in transfected cells; host or cells: HTC rat hepatoma cells (from the earlier reading)

Edg-6 = target: T6, Edg-6 (Homo sapiens, UniProt O95977); assay: Calcium mobilization assay (FLIPR), HTC cells expressing Edg 6; conditions: for EC50: agonist
T6 construct: expressed in transfected cells; host or cells: HTC rat hepatoma cells (from the earlier reading)
T6 sequence (O95977 1-384): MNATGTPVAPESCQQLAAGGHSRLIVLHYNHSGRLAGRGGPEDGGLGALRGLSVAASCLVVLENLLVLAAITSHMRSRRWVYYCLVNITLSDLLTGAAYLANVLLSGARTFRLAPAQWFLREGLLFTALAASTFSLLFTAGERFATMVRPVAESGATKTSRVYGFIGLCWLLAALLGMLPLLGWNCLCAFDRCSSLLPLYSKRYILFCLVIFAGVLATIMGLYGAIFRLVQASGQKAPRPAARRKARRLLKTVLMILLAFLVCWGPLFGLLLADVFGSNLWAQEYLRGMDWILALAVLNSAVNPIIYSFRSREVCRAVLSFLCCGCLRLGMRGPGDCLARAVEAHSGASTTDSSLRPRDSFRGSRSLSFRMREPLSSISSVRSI

Edg-3 = target: T7, Edg-3 (Homo sapiens, UniProt Q99500); assay: Calcium mobilization assay (FLIPR), HTC cells expressing Edg 3; conditions: for EC50: agonist
T7 construct: expressed in transfected cells; host or cells: HTC rat hepatoma cells (from the earlier reading)

Edg-5 = target: T8, Edg-5 (Homo sapiens, UniProt O95136); assay: Calcium mobilization assay (FLIPR), HTC cells expressing Edg 5; conditions: for EC50: agonist
T8 construct: expressed in transfected cells; host or cells: HTC rat hepatoma cells (from the earlier reading)

Edg-7 = target: T9, Edg-7 (Homo sapiens, UniProt Q9UBY5); assay: Calcium mobilization assay (FLIPR), HTC cells expressing Edg 7; conditions: calcium mobilization; for EC50: agonist
T9 construct: expressed in transfected cells; host or cells: HTC rat hepatoma cells (from the earlier reading)
T9 sequence (Q9UBY5 1-353): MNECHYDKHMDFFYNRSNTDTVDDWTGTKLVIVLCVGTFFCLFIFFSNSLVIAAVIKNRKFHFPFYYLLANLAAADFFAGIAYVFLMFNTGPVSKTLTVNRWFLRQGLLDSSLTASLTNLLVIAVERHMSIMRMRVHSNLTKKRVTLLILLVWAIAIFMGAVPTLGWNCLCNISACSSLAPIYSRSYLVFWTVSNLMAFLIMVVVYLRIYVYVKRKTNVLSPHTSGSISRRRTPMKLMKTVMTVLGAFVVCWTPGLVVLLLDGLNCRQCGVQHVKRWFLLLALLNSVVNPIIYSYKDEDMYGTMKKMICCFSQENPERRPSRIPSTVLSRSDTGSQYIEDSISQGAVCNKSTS

[3] = Calcium mobilization assay, Null; conditions: agonist
Description: as §1

[4] = test system: CaOV3 human ovarian cancer cells; assay: Migration assay, LPA stimulated chemotaxis; conditions: CaOV3, FIG. 9
Experimental: Cells were plated in a 24 well format using Fluoroblok filter insert plates ([…]) or Fluoroblok matrigel coated filter insert plates (Becton Dickinson, San Diego, Calif.). The assay was a modified Boyden Chamber assay in which a cell suspension (1 ×10^5 cells/ml) was prepared in serum free medium and added to the top chamber. LPA or SIP (doses ranged from 0.1-10 μM in serum free medium) was added to the bottom chamber. Following a 20-24 hour incubation period, the number of cells migrating or invading into the lower chamber was quantitated by transferring the filter insert into a fresh 24-well plate containing 4 μg/ml calcein AM (Molecular Probes, Sunnyvale, Calif.) in Hank's Balanced Salt Solution and staining for one hour.
Detection was via fluorescent readout at 450 nm excitation/530 nm emission using a fluorimeter. The level of fluorescence correlated with cell number.
For most cells types, no further manipulation was required. For CaOV3 human ovarian cancer cells, however, it was necessary that the cells be serum starved overnight prior to preparing the cell suspension. In addition, the filter inserts were coated with a solution of 1 mg/ml rat-tail Collagen I (BD, SanDiego, Calif.).

T7 sequence (Q99500 whole entry): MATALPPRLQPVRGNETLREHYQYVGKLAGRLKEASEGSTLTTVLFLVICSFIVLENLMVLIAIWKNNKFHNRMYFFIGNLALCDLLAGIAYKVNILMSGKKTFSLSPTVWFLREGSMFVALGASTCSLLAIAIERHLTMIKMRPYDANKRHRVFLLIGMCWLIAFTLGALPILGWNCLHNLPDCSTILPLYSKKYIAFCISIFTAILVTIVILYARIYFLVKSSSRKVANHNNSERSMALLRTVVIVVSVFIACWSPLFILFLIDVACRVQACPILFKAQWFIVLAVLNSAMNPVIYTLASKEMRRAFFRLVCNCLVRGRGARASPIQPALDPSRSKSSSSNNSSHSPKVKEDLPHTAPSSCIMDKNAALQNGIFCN
T8 sequence (O95136 whole entry): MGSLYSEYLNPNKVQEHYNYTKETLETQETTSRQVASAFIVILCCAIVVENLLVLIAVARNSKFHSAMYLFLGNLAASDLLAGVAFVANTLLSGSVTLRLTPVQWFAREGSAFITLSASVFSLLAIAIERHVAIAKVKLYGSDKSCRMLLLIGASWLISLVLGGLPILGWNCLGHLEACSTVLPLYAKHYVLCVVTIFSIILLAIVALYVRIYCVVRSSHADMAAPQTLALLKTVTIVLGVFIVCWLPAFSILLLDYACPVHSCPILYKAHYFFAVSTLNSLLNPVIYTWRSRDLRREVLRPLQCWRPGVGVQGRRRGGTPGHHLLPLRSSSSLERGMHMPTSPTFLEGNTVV
T3 sequence (Q9H228 whole entry): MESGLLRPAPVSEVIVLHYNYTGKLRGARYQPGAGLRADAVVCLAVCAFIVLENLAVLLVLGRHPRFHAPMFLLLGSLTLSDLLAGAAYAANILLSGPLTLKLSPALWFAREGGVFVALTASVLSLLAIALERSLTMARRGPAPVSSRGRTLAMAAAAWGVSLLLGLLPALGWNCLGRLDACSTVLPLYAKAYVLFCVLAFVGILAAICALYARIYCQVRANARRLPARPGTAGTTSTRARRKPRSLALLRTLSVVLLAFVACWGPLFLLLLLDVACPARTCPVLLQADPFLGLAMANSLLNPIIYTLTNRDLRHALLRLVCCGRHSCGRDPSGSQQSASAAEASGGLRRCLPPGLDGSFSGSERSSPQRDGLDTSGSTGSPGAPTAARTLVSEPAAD
T1 sequence (Q9HBW0 1-340 limits assumed): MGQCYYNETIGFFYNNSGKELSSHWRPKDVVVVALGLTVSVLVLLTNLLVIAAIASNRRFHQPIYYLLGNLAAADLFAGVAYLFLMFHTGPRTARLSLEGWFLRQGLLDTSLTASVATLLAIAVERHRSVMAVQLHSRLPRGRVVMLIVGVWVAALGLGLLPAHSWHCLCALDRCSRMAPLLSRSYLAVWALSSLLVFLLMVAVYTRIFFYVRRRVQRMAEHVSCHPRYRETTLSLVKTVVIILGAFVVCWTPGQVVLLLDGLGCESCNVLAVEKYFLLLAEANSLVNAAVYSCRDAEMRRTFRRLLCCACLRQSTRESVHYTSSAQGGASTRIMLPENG
T4 sequence (P21453 whole entry): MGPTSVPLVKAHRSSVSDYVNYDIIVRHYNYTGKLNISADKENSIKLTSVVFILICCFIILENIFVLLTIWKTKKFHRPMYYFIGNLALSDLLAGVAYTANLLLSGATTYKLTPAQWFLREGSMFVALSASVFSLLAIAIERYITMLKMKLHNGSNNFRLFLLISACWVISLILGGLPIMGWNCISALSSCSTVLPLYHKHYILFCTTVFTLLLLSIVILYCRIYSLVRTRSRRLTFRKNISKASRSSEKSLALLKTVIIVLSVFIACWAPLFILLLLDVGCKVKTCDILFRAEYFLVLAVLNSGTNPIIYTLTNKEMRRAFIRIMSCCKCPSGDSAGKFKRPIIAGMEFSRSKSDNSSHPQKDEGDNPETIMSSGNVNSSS
T5 sequence (Q92633 whole entry): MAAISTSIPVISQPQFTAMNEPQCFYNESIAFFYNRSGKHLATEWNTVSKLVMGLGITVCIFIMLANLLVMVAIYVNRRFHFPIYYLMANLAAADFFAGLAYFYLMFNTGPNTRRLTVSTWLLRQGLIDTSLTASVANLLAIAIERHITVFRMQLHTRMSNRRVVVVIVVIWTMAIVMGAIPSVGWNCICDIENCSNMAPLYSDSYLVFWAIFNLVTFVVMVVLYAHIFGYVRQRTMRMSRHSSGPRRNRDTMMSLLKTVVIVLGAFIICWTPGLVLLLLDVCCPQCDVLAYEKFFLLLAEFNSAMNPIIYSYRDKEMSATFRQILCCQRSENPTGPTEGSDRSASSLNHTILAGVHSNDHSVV
T2 sequence (Q9JL06 whole entry): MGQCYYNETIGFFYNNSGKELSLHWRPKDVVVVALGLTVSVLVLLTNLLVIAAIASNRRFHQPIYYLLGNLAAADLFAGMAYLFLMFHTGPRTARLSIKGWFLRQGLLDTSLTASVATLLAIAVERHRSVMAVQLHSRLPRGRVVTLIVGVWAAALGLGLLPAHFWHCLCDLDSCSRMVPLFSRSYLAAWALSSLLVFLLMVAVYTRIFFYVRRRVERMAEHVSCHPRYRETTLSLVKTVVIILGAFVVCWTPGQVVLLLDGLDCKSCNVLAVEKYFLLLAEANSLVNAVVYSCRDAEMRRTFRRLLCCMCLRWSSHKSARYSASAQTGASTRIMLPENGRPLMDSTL

| Compound | inhibition of LPA-induced calcium mobilization, human Edg-4 (human Edg-4 receptor [1]) | inhibition of LPA-induced calcium mobilization, mouse Edg-4 (mouse Edg-4 receptor) | EC50 (Edg-8) | EC50 (Edg-1) | EC50 [3] | EC50 (human Edg-4 receptor [1]; calcium mobilization) | Fold Selectivity for Edg-4 (EC50) (human Edg-4 receptor [2]) | EC50 (Edg-2) | EC50 (Edg-6) | EC50 (Edg-3) | EC50 (Edg-5) | EC50 (Edg-7) | inhibition of LPA-induced calcium mobilization, rat Edg-4 (rat Edg-4 receptor) | also measured |
| --- | --- | --- | --- | --- | --- | --- | --- | --- | --- | --- | --- | --- | --- | --- |
| COc1cccc(-c2cc(NC(=O)CC(=O)C(F)(F)F)[nH]n2)c1 [Compound 113, 4,4,4-trifluoro-N-[5-(3-methoxy-phenyl)-2H-pyrazol-3-yl]-3-oxo-butyramide] | dose dependent inhibition | dose dependent inhibition |  |  |  |  |  |  |  |  |  |  | dose dependent inhibition |  |
| O=C1NN=C(c2ccccc2)C(c2c[nH]c3ccccc23)N1 (centres unmarked) [Compound 121, 5-(1H-Indol-3-yl)-6-phenyl-4,5-dihydro-2H-[1,2,4]triazin-3-one] |  |  |  |  |  |  |  |  |  |  |  |  |  | IC50 (Edg-8; inhibition): > 20 µM; IC50 (Edg-1; inhibition): > 20 µM; IC50 (human Edg-4 receptor [1]; inhibition, calcium mobilization): 3.6 µM; Fold-selectivity for Edg-4 (IC50) (human Edg-4 receptor [2]; antagonists): >5.6; IC50 (Edg-2; inhibition): > 20 µM; IC50 (Edg-6; inhibition): > 20 µM; IC50 (Edg-3; inhibition): > 20 µM; IC50 (Edg-5; inhibition): > 20 µM; IC50 (Edg-7; inhibition): > 20 µM |
| N-[5-(3,4-dichloro-phenyl)-2H-pyrazol-3-yl]4,4,4-trifluoro-3-oxo-butyramide [Compound 103] | dose dependent inhibition | dose dependent inhibition |  |  |  |  |  |  |  |  |  |  | dose dependent inhibition | inhibition of calcium response elicited by agonist 125 (human Edg-4 receptor [1]; HTC cells transfected with human Edg-4, FIG. 15): inhibited; potency relative to compound 101 (human Edg-4 receptor [1]; dose response curve, FIG. 2): 2-3 fold; inhibition of LPA stimulated chemotaxis [4]: effectively blocked; also recorded: did inhibit |

The next lines start with results.

| inhibition of LPA-induced calcium mobilization, human Edg-4 (human Edg-4 receptor [1]) | inhibition of LPA-induced calcium mobilization, mouse Edg-4 (mouse Edg-4 receptor) | EC50 (Edg-8) | EC50 (Edg-1) | EC50 [3] | EC50 (human Edg-4 receptor [1]; calcium mobilization) | Fold Selectivity for Edg-4 (EC50) (human Edg-4 receptor [2]) | EC50 (Edg-2) | EC50 (Edg-6) | EC50 (Edg-3) | EC50 (Edg-5) | EC50 (Edg-7) | Compound | inhibition of LPA-induced calcium mobilization, rat Edg-4 (rat Edg-4 receptor) | also measured |
| --- | --- | --- | --- | --- | --- | --- | --- | --- | --- | --- | --- | --- | --- | --- |
|  |  | > 25 µM | > 25 µM | > 25 µM | 5.4 µM | >4.6 | > 25 µM | > 25 µM | > 25 µM | > 25 µM | > 25 µM | FC(F)(F)c1ccc2nnc(-c3cccc(Cl)c3Cl)n2c1 [Compound 129, 3-(2,3-dichlorophenyl)-6-trifluoromethyl[1,2,4]triazolo[4,3-a]pyridine] |  |  |
|  |  | > 25 µM | > 25 µM | > 25 µM | 9.9 µM | >2.5 | > 25 µM | > 25 µM | > 25 µM | > 25 µM | > 25 µM | FC(F)(F)c1ccc2nnc(-c3c(Cl)cccc3Cl)n2c1 [Compound 131, 3-(2,6-dichlorophenyl)-6-trifluoromethyl-[1,2,4]triazolo [4,3-a]pyridine] |  |  |
